Test results published in patent US20040029908A1, “Tricyclo compounds, a process for their production and a pharmaceutical composition containing the same” (FUJISAWA PHARMACEUTICAL CO., LTD., priority 1984, published 2004).
In brackets after ≈: the same amount, converted by molar mass.

Columns and labels:
[1] = test system: mouse MLR (C57BL/6 responder cells, mitomycin C treated BALB/C stimulator cells); experiment: Suppression of in vitro Mixed Lymphocyte Reaction (MLR), 3H-thymidine uptake; assay type: cell-based; details: for IC50: Lymphocyte, mouse MLR, 68 hours, 3H-thymidine
Procedure: The MLR test was performed in microtiter plates, with each well containing 5 ×10^5 C57BL/6 responder cells (H-2^b ), 5 ×10^5 mitomycin C treated (25μg/ml mitomycin C at 37° C. for 30 minutes and washed three times with RPMI 1640 medium) BALB/C stimulator cells (H-2^d) in 0.2 ml RPMI 1640 medium supplemented with 10% fetal calf serum, 2mM sodium hydrogen carbonate, penicillin (50 unit/ml) and streptomycin (50 μg/ml) . The cells were incubated at 37 ° C. in humidified atmosphere of 5% carbon dioxide and 95% of air for 68 hours and pulsed with ^3H-thymidine (0.5 μCi) 4 hours before the cells were collected. The object compound of this invention was dissolved in ethanol and further diluted in RPMI 1640 medium and added to the cultures to give final concentrations of 0.1 μg/ml or less.

[2] = test system: Aspergillus fumigatus IFO 5840; experiment: Antimicrobial activity, serial agar dilution method in Sabouraud agar; assay type: cell-based; details: IFO5840, 30° C., 24 hours
Procedure: (§1) Antimicrobial activities of the tricyclo compounds (I) against various fungi were determined by a serial agar dilution method in a Sabouraud agar. Minimum inhibitory concentrations (MIC) were expressed in terms of μg/ml after incubation at 30° C. for 24 hours.

[3] = test system: ddY mice; experiment: Acute toxicities in ddY mice by intraperitoneal injection; assay type: in vivo
[4] = Solubility (physical and chemical properties); assay type: physicochemical
[5] = test system: Fusarium oxysporum; experiment: Antimicrobial activity, serial agar dilution method in Sabouraud agar; assay type: cell-based; details: 30° C., 24 hours
Procedure: as §1

[6] = hexane (n-hexane), petroleum ether
[7] = methanol, ethanol, acetone, ethyl acetate, chloroform, diethyl ether and benzene
[8] = ddY mice, intraperitoneal injection

SMILES: CCC1/C=C(\C)CC(C)CC(OC)C2OC(O)(C(=O)C(=O)N3CCCCC3C(=O)OC(/C(C)=C/C3CCC(O)C(OC)C3)C(C)C(O)CC1=O)C(C)CC2OC (stereo not shown) [FR-900520, 17-Ethyl-1,14-dihydroxy-12-[2-(4-hydroxy-3-methoxycyclohexyl)-1-methylvinyl)-23,25-dimethoxy-13,19,21,27-tetramethyl-11,28-dioxa-4-azatricyclo-[^22.3.1.0^4,^9) octacos-18-ene-2,3,10,16-tetraone]
- Radioactivities (mean C.P.M. ± S.E.) ([1]; 0.25 ng/ml): 14987 ± 1786 C.P.M.
- Suppression (%) ([1]; 0.25 ng/ml): 35.1%
- Radioactivities (mean C.P.M. ± S.E.) ([1]; 0.500 ng/ml): 9434 ± 1546 C.P.M.
- Suppression (%) ([1]; 0.500 ng/ml): 59.2%
- Radioactivities (mean C.P.M. ± S.E.) ([1]; 1 ng/ml): 2744 ± 527 C.P.M.
- Suppression (%) ([1]; 1 ng/ml): 88.1%
- Radioactivities (mean C.P.M. ± S.E.) ([1]; 10 ng/ml): 515 ± 55 C.P.M.
- Suppression (%) ([1]; 10 ng/ml): 97.8%
- Radioactivities (mean C.P.M. ± S.E.) ([1]; 100 ng/ml): 175 ± 16 C.P.M.
- Suppression (%) ([1]; 100 ng/ml): 99.2%
- IC50 [1]: 0.00038 µg/mL (≈ 0.00048 µM)
- MIC [2]: 0.1 µg/mL (≈ 0.126 µM)
- the dead at dose of 100 mg/kg ([3]; mouse, in vivo, ip): could not be observed
- Solubility [4, 6]: Sparingly Soluble
- Solubility [4, 7]: Soluble
- Solubility ([4]; water): Insoluble

SMILES: CO[C@H]1C[C@@H](C)C/C(C)=C/[C@@H](C)C(=O)C[C@H](O)[C@@H](C)[C@@H](/C(C)=C/[C@@H]2CC[C@@H](O)[C@H](OC)C2)OC(=O)[C@@H]2CCCCN2C(=O)C(=O)[C@]2(O)O[C@H]1[C@@H](OC)C[C@H]2C [FR-900523]
- Radioactivities (mean C.P.M. ± S.E.) ([1]; 0.25 ng/ml): 17721 ± 1083 C.P.M.
- Suppression (%) ([1]; 0.25 ng/ml): 23.3%
- Radioactivities (mean C.P.M. ± S.E.) ([1]; 0.500 ng/ml): 11624 ± 395 C.P.M.
- Suppression (%) ([1]; 0.500 ng/ml): 49.7%
- Radioactivities (mean C.P.M. ± S.E.) ([1]; 1 ng/ml): 5600 ± 399 C.P.M.
- Suppression (%) ([1]; 1 ng/ml): 75.8%
- Radioactivities (mean C.P.M. ± S.E.) ([1]; 10 ng/ml): 156 ± 37 C.P.M.
- Suppression (%) ([1]; 10 ng/ml): 99.3%
- Radioactivities (mean C.P.M. ± S.E.) ([1]; 100 ng/ml): 25 ± 12 C.P.M.
- Suppression (%) ([1]; 100 ng/ml): 99.9%
- IC50 [1]: 0.0005 µg/mL (≈ 0.000643 µM)
- MIC [2]: 0.3 µg/mL (≈ 0.386 µM)
- the dead at dose of 100 mg/kg [3, 8]: could not be observed
- Solubility [4, 6]: Sparingly Soluble
- Solubility [4, 7]: Soluble
- Solubility ([4]; water): Insoluble

SMILES: C=CC[C@@H]1/C=C(\C)C[C@H](C)C[C@H](OC)[C@H]2O[C@@](O)(C(=O)C(=O)N3CCC[C@H]3C(=O)O[C@H](/C(C)=C/[C@@H]3CC[C@@H](O)[C@H](OC)C3)[C@H](C)[C@@H](O)CC1=O)[C@H](C)C[C@@H]2OC [FR-900525]
- Radioactivities (mean C.P.M. ± S.E.) ([1]; 1.2 ng/ml): 10103 ± 421 C.P.M.
- Suppression (%) ([1]; 1.2 ng/ml): 35.8%
- Radioactivities (mean C.P.M. ± S.E.) ([1]; 2.5 ng/ml): 3564 ± 512 C.P.M.
- Suppression (%) ([1]; 2.5 ng/ml): 77.4%
- Radioactivities (mean C.P.M. ± S.E.) ([1]; 5 ng/ml): 828 ± 369 C.P.M.
- Suppression (%) ([1]; 5 ng/ml): 94.7%
- Radioactivities (mean C.P.M. ± S.E.) ([1]; 10 ng/ml): 372 ± 32 C.P.M.
- Suppression (%) ([1]; 10 ng/ml): 97.6%
- Radioactivities (mean C.P.M. ± S.E.) ([1]; 100 ng/ml): 469 ± 56 C.P.M.
- Suppression (%) ([1]; 100 ng/ml): 97.0%
- IC50 [1]: 0.00155 µg/mL (≈ 0.00196 µM)
- MIC [2]: 0.5 µg/mL (≈ 0.633 µM)
- MIC [5]: 1 µg/mL (≈ 1.27 µM)
- the dead at dose of 100 mg/kg [3, 8]: could not be observed
- Solubility [4, 6]: Sparingly Soluble
- Solubility [4, 7]: Soluble
- Solubility ([4]; water): Insoluble
